The results in this text go back to patent US4997843A, “2,4-disubstituted derivatives of tetrahydrofuran useful for the treatment of PAF mediated illnesses” (J Uriach & Cia S.A., priority 1987, dated 1991).

Test [1] relates to platelet aggregation induced by PAF. As to the kind of experiment: Test 1: inhibition of platelet aggregation induced by PAF in vitro (rabbit platelet rich plasma, Born nephelometric technique). The test is classed as cell-based, male New Zealand albino rabbits. As to conditions: Oryctolagus cuniculus, PAF C18 16 nM final, read-out: IC50 (concentration of the drug needed to inhibit the platelet aggregation in a 50%). On the procedure:
TEST 1: INHIBITION OF PLATELET AGGREGATION INDUCED BY PAF
The platelet rich plasma (PRP) is prepared by blood centrifugation at 250 xg for 10 min. at 4° C. and it is diluted with platelet poor plasma (PPP) obtained by additional centrifugation at 300 xg for 10 min. The amount of platelets is adjusted to […].

For test [2], the system named is hypotension induced by PAF. As to the kind of experiment: Test 2: inhibition of the hypotensive effect induced by PAF in normotense rats. The test is classed as in vivo, male Sprague Dawley rats. The settings on record: Rattus norvegicus, iv, anesthetized rats; compound via femoral vein 3 min before PAF (0.5 mg/Kg, i.v.); read-out: IC50 (inhibition of the hypotension induced by PAF). On the procedure: TEST 2--INHIBITION OF THE HYPOTENSIVE EFFECT INDUCED BY PAF IN NORMOTENSE RATS
Male Sprague Dawley rats, of 180-220 g of weight, anesthetized with sodium pentobarbital (50 mg/Kg, i.p. 1 mL/100 g) have been used. In order to measure the average arterial pressure a polyethylene catheter was introduced into the carotid artery. The arterial pressure was recorded with the help of a transducer connected with a R611 Beckman polygraph. The tested compounds were administrated through the femoral vein 3 min. before the injection of PAF (0.5 mg/Kg, i.v.).

Like-named read-outs stand apart in the source and are kept apart here.

Turning to `CCCCCCCCCCCCCCCCOCC1CC(COCCCCCC[n+]2ccsc2)CO1` (mixture of isomers) [Compound 63, (35)-cis, trans-3-[6-[(2-hexadecyloxymethyltetrahydrofuran-4-yl)methoxy]hexyl]thiazolium 4-methylbenzenesulfonate], in test [1] (Platelet), the IC50 worked out at 1.4 µM. The ED50 in test [2] stood at 2.5 mg/kg.
For `CCCCCCCCCCCCOCC1COC(COCCCCCCC[n+]2ccsc2)C1` (racemic) [Compound 1, (±)-cis, trans-3-[7-[(4-dodecyloxymethyltetrahydrofuran-2-yl)methoxy]heptyl]thiazolium 4-methylbenzenesulphonate] the same measures were 2.5 µM and 3.7 mg/kg.
Take `CCCCCCCCCCCCCCOCC1COC(COCCCCCCC[n+]2ccsc2)C1` (racemic) [Compound 2, (±)-cis, trans-3-[7-(4-tetradecyloxymethyltetrahydrofuran-2-yl)methoxy]heptyl]thiazolium 4-methylbenzenesulfonate]: in test [1] (Platelet), the IC50 was 0.9 µM. Also, in test [2], the ED50 is 1.4 mg/kg.
The matching figures for `CCCCCCCCCCCCCCOCC1COC(COCCCCCC[n+]2ccsc2)C1` (racemic) [Compound 3, (±)-cis, trans-3-[6-[(4-tetradecyloxymethyltetrahydrofuran-2-yl)methoxy]hexyl]thiazolium 4-methylbenzenesulfonate]: 0.7 µM and 3 mg/kg.
The matching figures for `CCCCCCCCCCCCCCCCOCC1COC(COCCCCCC[n+]2ccsc2)C1` (racemic) [Compound 4, (±)-cis, trans-3-[6-[(4-hexadecyloxymethyltetrahydrofuran-2-yl)methoxy]hexyl]thiazolium 4-methylbenzenesulfonate]: 1.4 µM and 1.2 mg/kg.
The matching figures for `CCCCCCCCCCCCCCCCOCC1COC(COC(=O)CCCCC[n+]2ccsc2)C1` (racemic) [Compound 5, (±)-cis, trans-3-[6-[(4-hexadecyloxymethyltetrahydrofuran-2-yl)methoxy]-6-oxohexyl]thiazolium 4-methylbenzenesulfonate]: 4.8 µM and 1.6 mg/kg.
Take `CCCCCCCCCCCCCCCCCCOCC1COC(COC(=O)CCCCC[n+]2ccsc2)C1` (racemic) [Compound 6, (±)-cis, trans-3-[6-[(4-octadecyloxymethyltetrahydrofuran-2-yl)methoxy]-6-oxohexyl]thiazolium 4-methylbenzenesulfonate]: in test [1] (Platelet), the IC50 came out at 8.6 µM. In test [2], the ED50 worked out at 1.9 mg/kg.
The matching figures for `CCCCCCCCCCCCCCCNC(=O)OCC1COC(COC(=O)CCCCC[n+]2ccsc2)C1` (racemic) [Compound 7, (±)-cis, trans-3-[6-oxo-6-[(4-pentadecylaminocarbonyloxymethyltetrahydrofuran-2-yl)methoxy]hexyl]thiazolium 4-methylbenzenesulfonate]: 5.9 µM and 3.6 mg/kg.
The matching figures for `CCCCCCCCCCCCCCCCOCC1COC(COC(=O)NCc2cccc[n+]2CC)C1` (racemic) [Compound 10, (±)-cis, trans-N-ethyl-2-[[[(4-hexadecyloxymethyltetrahydrofuran-2-yl)methoxy]carbonyl]amino]methylpyridinium iodide]: 3.8 µM and 6.6 mg/kg.
On to `CCCCCCCCCCCCCCCCCCOCC1CC(COCCCCC[n+]2ccsc2)CO1` (racemic) [Compound 62, (±)-cis, trans-3-[5-[(2-octadecyloxymethyltetrahydrofuran-4-yl)methoxy]pentyl]thiazolium 4-methylbenzenesulfonate], for which the IC50 in test [1] (Platelet) turned out to be 2.1 µM.
On the same count and under the same terms, to `CCCCCCCCCCCCCCC1COC(COCCCCCC[N+](C)(C)C)C1` (racemic) [Compound 71, (±)-cis, trans-6-[6-(4-tetradecyltetrahydrofuran-2-yl)methoxy]N,N,N-trimethylhexaminium 4-methylbenzenesulfonate] belongs 8.2 µM; to `CCCCCCCCCCCCCCC1COC(COCCCCCC[n+]2ccn(C)c2)C1` (racemic) [Compound 73, (±)-cis, trans-3-methyl-1-[6-[(4-tetradecyltetrahydrofuran-2-yl)methoxy]hexyl]imidazolium 4-methylbenzenesulfonate], 15 µM; to `CCCCCCCCCCCCCCC1COC(COCCCCCC[n+]2ccccc2)C1` (racemic) [Compound 74, (±)-cis, trans-1-[6-[(4-tetradecyltetrahydrofuran-2-yl)methoxy]hexyl]pyridinium methanesulfonate], 6.3 µM.
Regarding `CCCCCCCCCCCCCCC1COC(COC(=O)CCCCC[n+]2ccsc2)C1` (racemic) [Compound 75, (±)-cis, trans-3-[6-[(4-tetradecyltetrahydrofuran-2-yl)methoxy]-6-oxohexyl]thiazolium 4-methylbenzenesulfonate], the IC50 in test [1] (Platelet) is 50 µM.
Still for that read-out and setting: to `CCCCCCCCCCCCCCC1COC(COC(=O)CCCCC[N+](C)(C)C)C1` (racemic) [Compound 76] belongs 180 µM.
Same read-out and setting: next, `CCCCCCCCCCCCCCC1COC(COC(=O)CCCCC[n+]2ccccc2)C1` (racemic) [Compound 77, (±)-cis, trans-1-[6-[(4-tetradecyltetrahydrofuran-2-yl)methoxy]-6-oxohexyl]pyridinium 4-methylbenzenesulfonate]: 120 µM; `CCCCCCCCCCCCCCC1COC(COC(=O)CCCCC[n+]2ccn(C)c2)C1` (racemic) [Compound 78, (±)-cis, trans-3-methyl-1-[6-[(4-tetradecyltetrahydrofuran-2-yl)methoxy]-6-oxohexyl]imidazolium 4-methylbenzenesulfonate]: 210 µM.
On the same count and under the same terms, next, `CCCCCCCCCCCCCCC1COC(COCCCC[n+]2ccsc2)C1` (racemic) [Compound 79, (±)-cis, trans-3-[4-[(4-tetradecyltetrahydrofuran-2-yl)methoxy]butyl]thiazolium 4-methylbenzenesulfonate]: 39 µM; `CCCCCCCCCCCCCCC1COC(COCCCC[n+]2ccccc2C)C1` (racemic) [Compound 80, (±)-cis, trans-2-methyl-1-[4-[(4-tetradecyltetrahydrofuran-2-yl)methoxy]butyl]pyridinium 4-methylbenzenesulfonate]: 75 µM; `CCCCCCCCCCCCCCC1COC(COCCCC[N+]2(C)CCOCC2)C1` (racemic) [Compound 81, (±)-cis, trans-4-methyl-4-[4-[(4-tetradecyltetrahydrofuran-2-yl)methoxy]butyl]morpholinium 4-methylbenzenesulfonate]: 51 µM.
`CCCCCCCCCCCCCC[C@@H]1CO[C@@H](COCCCCCC[n+]2ccsc2)C1` (racemic) [Compound 84, (±)-trans-3-[6-[(4-tetradecyltetrahydrofuran-2-yl)methoxy]hexyl]thiazolium 4-methylbenzenesulfonate]: in test [1], the IC50 was determined as 2.6 µM.
As for `CCCCCCCCCCCCCC[C@@H]1CO[C@H](COCCCCCC[n+]2ccsc2)C1` (relative stereo) [Compound 83, (±)-cis-3-[6-[(4-tetradecyltetrahydrofuran-2-yl)methoxy]hexyl]thiazolium4-methylbenzenesulfonate], the IC50 in test [1] (Platelet) was determined as 2.6 µM.
